How the values were obtained:
hDAAO (human DAAO) = hDAAO (human DAAO) (Homo sapiens (Human), UniProt P14920); experiment: hDAAO (human DAAO) activity, D-serine substrate, Amplex Red fluorescence; assay type: biochemical
Experimental: The hDAAO (human DAAO) activity was measured by using D-serine as a substrate to produce H2O2. The produced H2O2 would be oxidized by peroxidase, and the produced free radicals would further react with Amplex Red reagent to emit fluorescence. The intensity of fluorescence at 590 nm would be measured to represent the activity of hDAAO. All compounds were dissolved in DMSO. Each compound was diluted with DMSO in 3-fold serial dilution to create a 9-point dose response curve. Each sample was added in triplicate, 1 μL/well, into 96-well black plates. Positive control wells were added with 1 μL of DMSO. Then 49 μL of assay buffer (100 mM Tris-HCl, pH 8.5) containing 1.2 ng/mL hDAAO, 900 nM FAD, 0.2 units/mL HRP, and 100 μM Amplex Red was added to each well of the plate using a multichannel pipette. Next, 50 μL of 100 mM D-Serine in assay buffer was added. The reaction plates were then incubated in the dark at room temperature. The fluorescence readout was detected at 0 and 20 minute by Molecular Device Gemini EM fluorescence reader using the following settings: excitation filter 530 nm, and emission filter 590 nm. The percentage of inhibition values for each well was calculated with the following equation: The percentage of inhibition=(fluorescencesample, 20 min−fluorescencesample, 0 min)/(fluorescenceDMSO, 20 min−fluorescenceDMSO, 0 min)×100%
(§1) The nonlinear curve fitting model in GraphPad Prism 5 was used to calculate IC50 value for each compound.

[1] = target: pkDAAO (porcine kidney DAAO) (Sus scrofa (Pig), UniProt P00371); experiment: pkDAAO (porcine kidney DAAO) activity, D-Proline substrate, OPD OD450; assay type: biochemical
Experimental: The pkDAAO (porcine kidney DAAO) activity was measured by using D-Proine as a substrate to produce hydrogen peroxide (H2O2). The produced H2O2 would be oxidized by peroxidase, and the produced free radicals would further react with 1,2-Phenylenediamine (OPD) reagent. […] The OD450 would be measured to represent the activity of pkDAAO. All compounds were dissolved in DMSO. Each compound was diluted with DMSO in 3 or 4-fold serial dilution to create a 9-point dose response curve. Each sample was added in triplicate, 10 μL/well, into 96-well assay microplate. Positive control wells were added with 10 μL of DMSO. The diluted compounds were incubated with pkDAAO in dark for 10 minutes and then reacted with D-Proline. The final reaction mixture was composed of 0.01 U/mL pkDAAO, 0.03% OPD, 25 U/mL HRP and 40 mM D-Proline in PBS. The reaction plates were then incubated in the dark at room temperature. The OD450 absorbance readout was detected at 0 and 20 minute by Molecular Device Spectra Max Plus reader. The percentage of inhibition values for each well were calculated with the following equation: The percentage of inhibition=(OD450sample, 20 min−OD450sample, 0 min)/(OD450DMSO, 20 min−OD450DMSO, 0 min)×100%
as §1

pkDAAO (porcine kidney DAAO), sequence (P00371 whole entry): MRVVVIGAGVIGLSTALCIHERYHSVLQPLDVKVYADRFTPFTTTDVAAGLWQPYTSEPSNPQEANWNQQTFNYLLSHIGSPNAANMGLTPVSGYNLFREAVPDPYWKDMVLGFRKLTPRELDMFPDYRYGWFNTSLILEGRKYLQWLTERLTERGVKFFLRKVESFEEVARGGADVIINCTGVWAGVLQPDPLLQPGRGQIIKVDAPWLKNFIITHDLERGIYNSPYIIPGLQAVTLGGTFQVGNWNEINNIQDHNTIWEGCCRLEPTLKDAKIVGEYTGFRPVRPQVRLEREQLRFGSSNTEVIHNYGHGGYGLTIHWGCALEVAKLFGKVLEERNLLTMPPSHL
hDAAO (human DAAO), sequence (P14920 whole entry): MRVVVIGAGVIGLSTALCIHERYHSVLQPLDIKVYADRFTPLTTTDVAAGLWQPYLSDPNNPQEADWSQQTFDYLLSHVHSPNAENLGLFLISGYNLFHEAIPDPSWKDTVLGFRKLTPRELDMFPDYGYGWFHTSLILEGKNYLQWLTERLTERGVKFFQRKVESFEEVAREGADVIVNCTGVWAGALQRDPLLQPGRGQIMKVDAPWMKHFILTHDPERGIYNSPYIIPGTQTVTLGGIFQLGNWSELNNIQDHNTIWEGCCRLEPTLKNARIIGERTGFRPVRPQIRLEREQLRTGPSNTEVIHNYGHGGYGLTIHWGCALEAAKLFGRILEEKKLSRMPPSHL

SMILES | IC50 (hDAAO (human DAAO)) | IC50 [1]
O=C(Oc1cc(Cc2cccc3ccccc23)n[nH]c1=O)c1cc(CCc2ccccc2Cl)n[nH]1 | 100 to 500 nM | 10 to 100 nM
O=C(Oc1cc(CCc2cccc3ccccc23)n[nH]c1=O)c1cc(CCc2ccc(Cl)cc2)n[nH]1 | 100 to 500 nM | 10 to 100 nM
O=C(Oc1cc(CCc2cccc3ccccc23)n[nH]c1=O)c1cc(CCc2ccccc2)n[nH]1 | 100 to 500 nM | 10 to 100 nM
O=C(Oc1cc(Cc2ccc3ccccc3c2)n[nH]c1=O)c1cc(CCc2ccccc2)n[nH]1 | 100 to 500 nM | 10 to 100 nM
O=C(Oc1coc(CO)cc1=O)c1cc(CCc2ccc(Cl)cc2)c[nH]1 [Compound 5, 6-(hydroxymethyl)-4-oxo-4H-pyran-3-yl 4-(4-chlorophenethyl)-1H-pyrrole-2-carboxylate] | 10000 to 100000 nM | 10000 to 100000 nM
O=C(Oc1coc(CO)cc1=O)c1cc2occc2[nH]1 [Compound 9, 6-(hydroxymethyl)-4-oxo-4H-pyran-3-yl 4H-furo[3,2-b]pyrrole-5-carboxylate] | 1000 to 10000 nM | 10000 to 100000 nM
O=C(Oc1coc(CSc2ccc(Cl)cc2)cc1=O)c1cc(CCc2ccc(Cl)cc2)c[nH]1 [Compound 14, 6-(((4-chlorophenyl)thio)methyl)-4-oxo-4H-pyran-3-yl 4-(4-chlorophenethyl)-1H-pyrrole-2-carboxylate] | 1000 to 10000 nM | 10000 to 100000 nM
O=C(Oc1cc2c(Cl)cccc2[nH]c1=O)c1cc(CCc2ccc(Cl)cc2)c[nH]1 [Compound 18, 5-chloro-2-oxo-1,2-dihydroquinolin-3-yl 4-(4-chlorophenethyl)-1H-pyrrole-2-carboxylate] | 100 to 500 nM | 1000 to 10000 nM
O=C(Oc1cc2c(Cl)cccc2[nH]c1=O)c1cc(CCc2ccccc2)c[nH]1 [Compound 23, 5-chloro-2-oxo-1,2-dihydroquinolin-3-yl 4-phenethyl-1H-pyrrole-2-carboxylate] | 100 to 1000 nM | 1000 to 10000 nM
O=C(Oc1cc2c(Cl)cccc2[nH]c1=O)c1cc(CCc2ccccc2)n[nH]1 [Compound 27, 5-chloro-2-oxo-1,2-dihydroquinolin-3-yl 3-phenethyl-1H-pyrazole-5-carboxylate] | 100 to 500 nM | 100 to 1000 nM
O=C(Oc1cc2c(Cl)cccc2[nH]c1=O)c1cc(CCc2ccc(Cl)cc2)n[nH]1 [Compound 32, 5-chloro-2-oxo-1,2-dihydroquinolin-3-yl 3-(4-chlorophenethyl)-1H-pyrazole-5-carboxylate] | 100 to 1000 nM | 100 to 500 nM
O=C(Oc1cc(CSc2ccc(Cl)c(Cl)c2)c[nH]c1=O)c1cc(CCc2ccccc2)n[nH]1 [Compound 49, 5-(((3,4-dichlorophenyl)thio)methyl)-2-oxo-1,2-dihydropyridin-3-yl 3-phenethyl-1H-pyrazole-5-carboxylate] | 1000 to 10000 nM | 100 to 1000 nM
O=C(Oc1cc(CSc2ccc(Cl)c(Cl)c2)c[nH]c1=O)c1cc(CCc2ccccc2)c[nH]1 [Compound 50, 5-(((3,4-dichlorophenyl)thio)methyl)-2-oxo-1,2-dihydropyridin-3-yl 4-phenethyl-1H-pyrrole-2-carboxylate] | 1000 to 10000 nM | 1000 to 10000 nM
O=C(Oc1cc(CCc2cc(F)cc(F)c2)n[nH]c1=O)c1cc(CCc2ccc(Cl)cc2)c[nH]1 [Compound 56, 6-(3,5-difluorophenethyl)-3-oxo-2,3-dihydropyridazin-4-yl 4-(4-chlorophenethyl)-1H-pyrrole-2-carboxylate] | 1000 to 10000 nM | 10000 to 100000 nM
O=C(Oc1cc(Cc2cccc3ccccc23)n[nH]c1=O)c1cc(CCc2ccccc2)n[nH]1 [Compound 62, 6-(naphthalen-1-ylmethyl)-3-oxo-2,3-dihydropyridazin-4-yl 3-phenethyl-1H-pyrazole-5-carboxylate] | 100 to 1000 nM | 10 to 100 nM
O=C(Oc1cc(Cc2cccc3ccccc23)n[nH]c1=O)c1cc(CCc2cccc(Cl)c2)n[nH]1 [Compound 67, 6-(naphthalen-1-ylmethyl)-3-oxo-2,3-dihydropyridazin-4-yl 3-(3-chlorophenethyl)-1H-pyrazole-5-carboxylate] | 100 to 500 nM | 10 to 100 nM
O=C(Oc1cc(Cc2cccc3ccccc23)n[nH]c1=O)c1cc(CCc2ccc(F)cc2)n[nH]1 [Compound 72, 6-(naphthalen-1-ylmethyl)-3-oxo-2,3-dihydropyridazin-4-yl 3-(4-fluorophenethyl)-1H-pyrazole-5-carboxylate] | 100 to 500 nM | 10 to 100 nM
O=C(Oc1cc(Cc2cccc3ccccc23)n[nH]c1=O)c1cc(Cc2ccccc2)n[nH]1 [Compound 77, 6-(naphthalen-1-ylmethyl)-3-oxo-2,3-dihydropyridazin-4-yl 3-benzyl-1H-pyrazole-5-carboxylate] | 100 to 1000 nM | 10 to 100 nM
